PubChem BioAssay (NCI)
Where “and” joins values, the source holds several entries; their conditions need not be identical. Equal values may be shown once.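 Where inhibition never reached the appropriate level, the endpoint shown equals the highest concentration tested. Otherwise, values were interpolated linearly from a five-concentration, 48-hour dose response in 96-well plates. TGI denotes the concentration required for complete inhibition of growth.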

Each compound was assayed on PC-3 prostate (assay: inhibition of tumour cell growth, NCI panel, 48 h).

| Structure (SMILES) | TGI |
| --- | --- |
| O=c1oc2ccc([N+](=O)[O-])cc2c(Nc2ccc3c(c2)Oc2ccccc2O3)c1[N+](=O)[O-] | 55.4 µM |
| On1c(-c2ccccc2)nc2ccccc2c1=S | 74.2 µM |
| CSc1cnc2ccccc2c1SC1CN(Cc2ccccc2)c2ccccc2C1=O (stereo not drawn) | > 100 µM |
| Cn1c2ccccc2c(=O)c2cccc(C(=O)NC(CCCN=C(N)N)C(=O)O)c21 (stereo not drawn) | > 100 µM |
| COc1cc(OC)c(C2c3cc4c(cc3OC(N3CCCC3)C2C)OCO4)c(OC)c1 (stereo not drawn) | 49 µM |
| C=C1CN2CC(=C)CN(C1)CS(=O)(=O)N1CC(=C)CN(CC(=C)C1)S(=O)(=O)N1CC(=C)CN(CC(=C)C1)S(=O)(=O)C2 | 38.6 µM |
| O=C(O)/C=c1/c2ccccc2n2nc3ccccc3c12 | > 100 µM |
| O=C1c2ccccc2C2(c3ccc(Cl)cc3)N[C@H]3CCCC[C@@H]3N12 (stereo partly drawn) | > 100 µM |
| Cn1c2ccccc2c(=NNc2cccc(C(=O)O)c2)c2ccccc21 | 23.6 µM |
| Cn1c(COC(=O)Nc2ccccc2)c(COC(=O)Nc2ccccc2)c2ccc3cc(Cl)c(Cl)cc3c21 | 20.4 µM |

These compounds were tested on SR leukemia (assay: inhibition of tumour cell growth, NCI panel, 48 h).

| Structure (SMILES) | TGI |
| --- | --- |
| C=C1C(=O)C=C[C@]2(C)CC[C@H]3C(=C)C(=O)O[C@@H]3[C@@H]12 | 6.11 µM |
| CC12CCC(O)CC1CCC1C2CCC2(C)C(C(=O)CC(O)C(F)(F)F)CCC12 (stereo not drawn) | 11.2 µM |
| CC(C)(C)OC(=O)NCCCNC1(c2cc3ccccc3s2)CCCCC1 | 28 µM |
| COc1ccc(N2C(=O)CSC2c2c[nH]c3ccccc23)cc1 (stereo not drawn) | > 100 µM |
| CC(C)(C)C(=O)CC1=Nc2ccccc2SC1(O)CC(=O)C(C)(C)C (stereo not drawn) | 33 µM |
| N#CC1=C(N)N(c2ccccc2)C(c2ccccc2)C1(C#N)C#N (stereo not drawn) | 40.5 µM |
| C=CCOc1ccc(C2(O)c3ccccc3C3=NCCCN32)cc1 (stereo not drawn) | > 78.8 µM |
| CCOC(=O)NC(Nc1ccc([N+](=O)[O-])cc1)(C(F)(F)F)C(F)(F)F | > 100 µM |
| O=C1/C(=C/c2ccc(Cl)cc2)CSc2ccccc21 | > 100 µM |
| CCCCN=C(c1ccccc1)N1CCOCC1 | > 100 µM |
| CSc1ncnc2c1ncn2CCC#N | > 100 µM |
| C[N+]12CCCCC1C(CN1C(=O)Cc3c4ccccc4c(c4ccccc34)CC1=O)CCC2 (stereo not drawn) | > 100 µM |
| CC(=O)O[C@H]1CC[C@@]2(C)C(=CC[C@H]3[C@@H]4C[C@H](N5CCOCC5)[C@H](OC(C)=O)[C@@]4(C)CC[C@@H]32)C1 | > 100 µM |
| CC1CCCC(CC(=O)O)(CC(=O)O)C1 (stereo not drawn) | > 100 µM |
| CC(C)(Cl)C(Br)CCC(=CCCl)CBr (mixture of isomers) | 3.92 µM |
| CC(=O)OCC1OC(n2c3c(cc(C#N)c2=S)CCCCC3)C(OC(C)=O)C(OC(C)=O)C1OC(C)=O (stereo not drawn) | > 100 µM |
| Nc1[nH]nc2nc3ccc(C(F)(F)F)cc3nc12 | > 100 µM |
| CCN1CCC(O)(/C=C/c2ccc(C)cc2C)C(C(=O)/C=C/c2ccc(C)cc2C)C1 (stereo not drawn) | 7.94 µM |
| O=[N+]([O-])/C(C(Cl)=C(Cl)Cl)=C(\N1CCCCC1)n1cncn1 | > 100 µM |
| S=C(Nc1ccc2c(c1)oc1ccccc12)c1cccnc1 | > 100 µM |
| O=C1c2cccnc2-c2nccc3c2c1nc1cc(Br)ccc13 | 0.0617 µM |
| NC(CCC(=O)NC(CSCC1C(=O)Nc2ccccc21)C(=O)NCC(=O)O)C(=O)O (stereo not drawn) | 2.51 µM |

| Structure (SMILES) | TGI |
| --- | --- |
| NNC(=O)CSc1nc2ccccc2c(=O)n1N | > 100 µM |
| CCC(=O)ONC(=O)Cn1ccc([N+](=O)[O-])n1 | > 100 µM |
| CC(=O)NC1c2ccccc2C(C)(C)C12CCC1(CC2)OCCO1 (stereo not drawn) | > 100 µM |
| [N-]=[N+]=NC1=C(c2ccccn2)C(=O)c2cccc3cccc1c23 | > 100 µM |
| Cc1ccc(O)c(-c2cscn2)c1 | > 100 µM |
| C=C([C@@]1(O)C[C@H]2[C@H](CCC2(OC)OC)[C@@H]2c3ccccc3O[C@@H]21)[Si](C)(C)C | > 100 µM |
| O=C(O)c1ccc(OCc2nc3cc(C(F)(F)F)ccc3nc2-c2ccccc2)cc1 | > 100 µM |
| COc1ccc2c(c1)CCN1CCc3ccccc3CC21 (stereo not drawn) | > 100 µM |
| CN1COCc2c1ccc1cc3ccc4c(c3nc21)COCN4S(C)(=O)=O | > 100 µM |
| Oc1cccc(-c2nc3cc(F)ccc3s2)c1 | 47.8 µM |
| CN(C)c1ccc(C2SCC(=O)N2c2ccc(Oc3ccc(Cl)cc3)c(Cl)c2)cc1 (stereo not drawn) | 57.3 µM |
| CC(C)NC(=O)OCCN=c1c2ccccc2ccc2ccccc12 | 80.6 µM |
| CN(C)CCOC1(Cc2ccc(F)cc2)CCC(C(C)(C)C)CC1 (stereo not drawn) | 8.37 µM and 6.34 µM |
| Nc1ccc(C(=O)N2CCC[C@H]2CO)c(N)c1 | > 100 µM |
| O=c1oc2ccc([N+](=O)[O-])cc2c(Nc2ccc3c(c2)Oc2ccccc2O3)c1[N+](=O)[O-] | 72.4 µM |
| CC1=C(CO)C(=O)O[C@@H]([C@@H](CO)[C@H]2CCC3C4C[C@@H](O)[C@@]5(O)CC=CC(=O)[C@]5(C)C4CC[C@@]32C)C1 (stereo partly drawn) | > 100 µM |
| CSc1cnc2ccccc2c1SC1CN(Cc2ccccc2)c2ccccc2C1=O (stereo not drawn) | > 100 µM |
| COc1cc(OC)c(C2c3cc4c(cc3OC(N3CCCC3)C2C)OCO4)c(OC)c1 (stereo not drawn) | 29.6 µM |
| C=C1CN2CC(=C)CN(C1)CS(=O)(=O)N1CC(=C)CN(CC(=C)C1)S(=O)(=O)N1CC(=C)CN(CC(=C)C1)S(=O)(=O)C2 | > 100 µM |
| O=C(O)/C=c1/c2ccccc2n2nc3ccccc3c12 | 49.2 µM |
| O=C1c2ccccc2C2(c3ccc(Cl)cc3)N[C@H]3CCCC[C@@H]3N12 (stereo partly drawn) | > 100 µM |
